Tests used:
Parameters in all cases: scale not given: the % may be the effect or the level left
[1] = molecular target: Leukocyte tyrosine kinase receptor (Homo sapiens) (UniProt P29376); experiment: Inhibition of human TYK1/LTK assessed as enzyme activity at 1 uM using EAIYAAPFAKKK as substrate preincubated for 20 mins followed by [gamma-33P]-ATP addition and measured after 120 mins by radiometric Hot-SpotSM Kinase assay relative to control
[2] = molecular target: T1, Serine/threonine-protein kinase BRSK1 (Homo sapiens) (UniProt Q8TDC3); experiment: Inhibition of human BRSK1 assessed as enzyme activity at 1 uM using KKKVSRSGLYRSPSMPENLNRPR as substrate preincubated for 20 mins followed by [gamma-33P]-ATP addition and measured after 120 mins by radiometric Hot-SpotSM Kinase assay relative to control
T1 sequence (whole entry): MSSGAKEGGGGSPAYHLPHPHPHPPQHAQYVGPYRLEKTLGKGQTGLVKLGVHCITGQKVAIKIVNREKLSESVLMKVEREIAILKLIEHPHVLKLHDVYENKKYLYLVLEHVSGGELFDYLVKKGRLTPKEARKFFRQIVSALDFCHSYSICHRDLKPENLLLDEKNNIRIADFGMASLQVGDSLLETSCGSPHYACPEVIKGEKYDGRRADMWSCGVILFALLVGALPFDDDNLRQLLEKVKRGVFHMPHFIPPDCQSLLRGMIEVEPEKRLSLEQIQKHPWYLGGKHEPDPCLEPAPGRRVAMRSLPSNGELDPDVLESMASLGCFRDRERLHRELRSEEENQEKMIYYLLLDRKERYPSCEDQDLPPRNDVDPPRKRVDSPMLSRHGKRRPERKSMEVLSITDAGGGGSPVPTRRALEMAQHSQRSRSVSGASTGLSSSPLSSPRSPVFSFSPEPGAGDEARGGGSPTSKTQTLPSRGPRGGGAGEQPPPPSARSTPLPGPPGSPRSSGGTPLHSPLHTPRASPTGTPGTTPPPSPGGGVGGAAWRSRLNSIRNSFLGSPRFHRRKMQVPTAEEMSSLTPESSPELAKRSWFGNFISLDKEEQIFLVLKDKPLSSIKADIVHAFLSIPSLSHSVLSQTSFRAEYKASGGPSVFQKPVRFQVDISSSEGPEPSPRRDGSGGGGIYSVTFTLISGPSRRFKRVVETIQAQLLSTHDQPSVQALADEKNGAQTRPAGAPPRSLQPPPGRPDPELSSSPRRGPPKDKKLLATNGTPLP

[3] = molecular target: Serine/threonine-protein kinase PAK 1 (Homo sapiens) (UniProt Q13153); experiment: Inhibition of human PAK1 assessed as enzyme activity at 1 uM using RRRLSFAEPG as substrate preincubated for 20 mins followed by [gamma-33P]-ATP addition and measured after 120 mins by radiometric Hot-SpotSM Kinase assay relative to control
Serine/threonine-protein kinase PAK 1 (Homo sapiens), sequence (Q13153 whole entry): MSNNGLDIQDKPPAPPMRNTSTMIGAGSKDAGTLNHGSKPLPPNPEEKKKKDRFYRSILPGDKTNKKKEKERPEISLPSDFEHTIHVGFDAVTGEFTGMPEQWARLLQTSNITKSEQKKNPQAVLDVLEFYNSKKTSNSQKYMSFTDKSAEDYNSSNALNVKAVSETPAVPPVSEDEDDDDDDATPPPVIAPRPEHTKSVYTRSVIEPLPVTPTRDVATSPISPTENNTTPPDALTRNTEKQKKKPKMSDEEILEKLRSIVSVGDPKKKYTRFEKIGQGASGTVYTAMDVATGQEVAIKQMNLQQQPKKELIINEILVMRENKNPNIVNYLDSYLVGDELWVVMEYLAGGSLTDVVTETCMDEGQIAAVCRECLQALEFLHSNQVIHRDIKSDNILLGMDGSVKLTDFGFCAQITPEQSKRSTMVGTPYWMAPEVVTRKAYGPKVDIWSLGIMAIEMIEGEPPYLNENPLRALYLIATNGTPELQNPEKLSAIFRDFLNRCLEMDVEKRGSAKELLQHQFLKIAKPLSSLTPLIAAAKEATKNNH

[4] = molecular target: Tyrosine-protein kinase FRK (Homo sapiens) (UniProt P42685); experiment: Inhibition of human FRK assessed as enzyme activity at 1 uM using poly[Glu:Tyr] (4:1) as substrate preincubated for 20 mins followed by [gamma-33P]-ATP addition and measured after 120 mins by radiometric Hot-SpotSM Kinase assay relative to control
Tyrosine-protein kinase FRK (Homo sapiens), sequence (P42685 whole entry): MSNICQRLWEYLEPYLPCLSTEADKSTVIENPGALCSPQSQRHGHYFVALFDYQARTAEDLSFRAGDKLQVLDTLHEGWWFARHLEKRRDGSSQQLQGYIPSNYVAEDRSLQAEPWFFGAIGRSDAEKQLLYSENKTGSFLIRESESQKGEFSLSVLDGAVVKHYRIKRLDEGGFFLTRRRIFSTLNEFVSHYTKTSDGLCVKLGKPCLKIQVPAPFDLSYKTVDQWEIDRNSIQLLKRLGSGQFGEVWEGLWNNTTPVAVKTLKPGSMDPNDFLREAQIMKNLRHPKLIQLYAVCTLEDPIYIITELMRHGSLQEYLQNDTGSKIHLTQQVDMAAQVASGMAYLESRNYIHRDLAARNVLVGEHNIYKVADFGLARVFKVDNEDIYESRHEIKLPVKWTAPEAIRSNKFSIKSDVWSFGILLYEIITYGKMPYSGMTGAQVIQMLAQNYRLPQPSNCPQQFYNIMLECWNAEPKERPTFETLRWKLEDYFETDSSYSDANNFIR

[5] = molecular target: Mitogen-activated protein kinase kinase kinase 21 (Homo sapiens) (UniProt Q5TCX8); experiment: Inhibition of human MLK4 assessed as enzyme activity at 1 uM using MEK1 (K97R) as substrate preincubated for 20 mins followed by [gamma-33P]-ATP addition and measured after 120 mins by radiometric Hot-SpotSM Kinase assay relative to control
Mitogen-activated protein kinase kinase kinase 21 (Homo sapiens), sequence (Q5TCX8 whole entry): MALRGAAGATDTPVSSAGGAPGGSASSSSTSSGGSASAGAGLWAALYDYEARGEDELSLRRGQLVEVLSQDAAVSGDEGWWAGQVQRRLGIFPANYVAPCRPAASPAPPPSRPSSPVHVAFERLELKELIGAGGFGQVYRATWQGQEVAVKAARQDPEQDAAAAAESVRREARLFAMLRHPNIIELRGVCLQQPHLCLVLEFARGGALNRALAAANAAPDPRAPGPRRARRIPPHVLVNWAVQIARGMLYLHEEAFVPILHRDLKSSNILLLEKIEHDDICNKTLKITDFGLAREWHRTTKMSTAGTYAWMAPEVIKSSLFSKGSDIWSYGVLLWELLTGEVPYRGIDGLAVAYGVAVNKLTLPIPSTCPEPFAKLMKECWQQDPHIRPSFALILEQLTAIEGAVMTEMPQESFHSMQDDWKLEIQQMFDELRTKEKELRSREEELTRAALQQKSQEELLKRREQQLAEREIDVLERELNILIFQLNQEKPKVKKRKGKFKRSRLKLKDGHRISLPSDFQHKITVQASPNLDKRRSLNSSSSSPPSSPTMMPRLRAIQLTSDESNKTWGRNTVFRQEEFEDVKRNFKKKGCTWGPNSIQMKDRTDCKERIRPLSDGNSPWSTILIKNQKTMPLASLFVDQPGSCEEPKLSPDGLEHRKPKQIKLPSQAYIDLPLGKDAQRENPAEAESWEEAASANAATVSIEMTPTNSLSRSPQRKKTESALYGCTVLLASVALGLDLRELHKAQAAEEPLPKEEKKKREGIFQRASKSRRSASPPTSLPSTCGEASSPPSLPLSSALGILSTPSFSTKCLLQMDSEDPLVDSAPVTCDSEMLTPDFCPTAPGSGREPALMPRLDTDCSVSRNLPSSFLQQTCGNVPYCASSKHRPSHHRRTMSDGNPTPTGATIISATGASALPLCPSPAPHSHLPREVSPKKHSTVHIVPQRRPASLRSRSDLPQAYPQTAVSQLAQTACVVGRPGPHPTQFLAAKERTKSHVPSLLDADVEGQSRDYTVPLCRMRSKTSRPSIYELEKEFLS

[6] = molecular target: Death-associated protein kinase 1 (Homo sapiens) (UniProt P53355); experiment: Inhibition of human DAPK1 assessed as enzyme activity at 1 uM using KKLNRTLSFAEPG as substrate preincubated for 20 mins followed by [gamma-33P]-ATP addition and measured after 120 mins by radiometric Hot-SpotSM Kinase assay relative to control
Death-associated protein kinase 1 (Homo sapiens), sequence (P53355 whole entry, looked up): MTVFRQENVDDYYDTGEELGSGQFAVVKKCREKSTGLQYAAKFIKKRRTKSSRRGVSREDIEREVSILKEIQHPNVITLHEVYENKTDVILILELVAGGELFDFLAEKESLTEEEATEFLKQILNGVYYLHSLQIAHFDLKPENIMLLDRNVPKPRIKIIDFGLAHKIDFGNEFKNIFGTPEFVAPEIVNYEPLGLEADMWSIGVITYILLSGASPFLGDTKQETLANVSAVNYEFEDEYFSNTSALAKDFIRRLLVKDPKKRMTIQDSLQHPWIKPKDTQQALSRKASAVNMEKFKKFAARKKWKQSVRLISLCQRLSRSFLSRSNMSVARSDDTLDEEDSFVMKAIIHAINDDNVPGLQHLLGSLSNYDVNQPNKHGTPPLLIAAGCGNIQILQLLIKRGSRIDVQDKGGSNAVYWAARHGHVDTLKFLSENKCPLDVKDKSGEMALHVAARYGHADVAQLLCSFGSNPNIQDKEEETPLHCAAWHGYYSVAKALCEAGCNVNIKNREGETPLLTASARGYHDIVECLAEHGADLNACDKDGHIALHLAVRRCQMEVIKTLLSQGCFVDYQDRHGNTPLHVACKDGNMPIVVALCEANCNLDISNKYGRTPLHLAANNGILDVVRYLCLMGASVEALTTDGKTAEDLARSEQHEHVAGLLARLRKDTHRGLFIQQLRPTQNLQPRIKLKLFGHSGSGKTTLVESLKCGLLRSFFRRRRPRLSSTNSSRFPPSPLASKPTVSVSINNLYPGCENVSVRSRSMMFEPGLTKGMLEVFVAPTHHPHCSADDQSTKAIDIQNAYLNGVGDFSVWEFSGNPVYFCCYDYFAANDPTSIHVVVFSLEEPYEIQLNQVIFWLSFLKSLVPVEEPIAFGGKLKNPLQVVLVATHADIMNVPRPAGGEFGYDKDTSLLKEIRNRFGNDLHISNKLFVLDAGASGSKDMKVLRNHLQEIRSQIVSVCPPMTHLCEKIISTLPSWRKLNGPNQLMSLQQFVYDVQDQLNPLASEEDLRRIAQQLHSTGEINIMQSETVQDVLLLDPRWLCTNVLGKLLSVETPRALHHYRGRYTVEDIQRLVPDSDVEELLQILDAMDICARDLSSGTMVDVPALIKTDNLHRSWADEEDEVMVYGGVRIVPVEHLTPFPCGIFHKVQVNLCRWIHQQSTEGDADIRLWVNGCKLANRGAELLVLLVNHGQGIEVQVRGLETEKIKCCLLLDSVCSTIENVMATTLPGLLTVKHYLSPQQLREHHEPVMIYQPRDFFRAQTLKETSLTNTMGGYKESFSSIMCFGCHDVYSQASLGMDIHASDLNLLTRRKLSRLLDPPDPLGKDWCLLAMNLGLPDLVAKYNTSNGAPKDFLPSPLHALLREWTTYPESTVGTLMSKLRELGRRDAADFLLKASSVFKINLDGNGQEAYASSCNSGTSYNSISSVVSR

[7] = molecular target: T2, Serine/threonine-protein kinase Nek8 (Homo sapiens) (UniProt Q86SG6); experiment: Inhibition of human NEK8 assessed as enzyme activity at 1 uM using myelin basic protein as substrate preincubated for 20 mins followed by [gamma-33P]-ATP addition and measured after 120 mins by radiometric Hot-SpotSM Kinase assay relative to control
T2 sequence (whole entry): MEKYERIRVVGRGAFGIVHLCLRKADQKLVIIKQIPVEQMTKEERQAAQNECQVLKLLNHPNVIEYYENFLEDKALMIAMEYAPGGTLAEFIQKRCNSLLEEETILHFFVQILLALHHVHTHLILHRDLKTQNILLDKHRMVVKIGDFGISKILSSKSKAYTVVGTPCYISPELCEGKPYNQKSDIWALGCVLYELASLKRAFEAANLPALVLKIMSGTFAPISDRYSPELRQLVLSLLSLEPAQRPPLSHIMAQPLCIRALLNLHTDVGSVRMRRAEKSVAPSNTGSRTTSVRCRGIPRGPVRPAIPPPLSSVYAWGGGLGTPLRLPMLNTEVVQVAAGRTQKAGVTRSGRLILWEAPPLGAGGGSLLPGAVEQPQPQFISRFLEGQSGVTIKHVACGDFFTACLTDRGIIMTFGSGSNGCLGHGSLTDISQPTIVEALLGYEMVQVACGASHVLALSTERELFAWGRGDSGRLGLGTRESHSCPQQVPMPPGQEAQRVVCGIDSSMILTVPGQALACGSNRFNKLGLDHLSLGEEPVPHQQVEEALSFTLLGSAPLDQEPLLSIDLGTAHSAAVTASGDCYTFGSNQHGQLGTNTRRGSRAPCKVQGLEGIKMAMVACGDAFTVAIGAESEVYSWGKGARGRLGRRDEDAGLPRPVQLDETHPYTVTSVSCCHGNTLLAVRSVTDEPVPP

[8] = molecular target: Serine/threonine-protein kinase MARK1 (Homo sapiens) (UniProt Q9P0L2); experiment: Inhibition of human MARK1 assessed as enzyme activity at 1 uM using KKKVSRSGLYRSPSMPENLNRPR as substrate preincubated for 20 mins followed by [gamma-33P]-ATP addition and measured after 120 mins by radiometric Hot-SpotSM Kinase assay relative to control
[9] = molecular target: Activin receptor type-1-like (Homo sapiens) (UniProt P37023); experiment: Inhibition of human ALK1 assessed as enzyme activity at 1 uM using casein as substrate preincubated for 20 mins followed by [gamma-33P]-ATP addition and measured after 120 mins by radiometric Hot-SpotSM Kinase assay relative to control
Activin receptor type-1-like (Homo sapiens), sequence (P37023 whole entry): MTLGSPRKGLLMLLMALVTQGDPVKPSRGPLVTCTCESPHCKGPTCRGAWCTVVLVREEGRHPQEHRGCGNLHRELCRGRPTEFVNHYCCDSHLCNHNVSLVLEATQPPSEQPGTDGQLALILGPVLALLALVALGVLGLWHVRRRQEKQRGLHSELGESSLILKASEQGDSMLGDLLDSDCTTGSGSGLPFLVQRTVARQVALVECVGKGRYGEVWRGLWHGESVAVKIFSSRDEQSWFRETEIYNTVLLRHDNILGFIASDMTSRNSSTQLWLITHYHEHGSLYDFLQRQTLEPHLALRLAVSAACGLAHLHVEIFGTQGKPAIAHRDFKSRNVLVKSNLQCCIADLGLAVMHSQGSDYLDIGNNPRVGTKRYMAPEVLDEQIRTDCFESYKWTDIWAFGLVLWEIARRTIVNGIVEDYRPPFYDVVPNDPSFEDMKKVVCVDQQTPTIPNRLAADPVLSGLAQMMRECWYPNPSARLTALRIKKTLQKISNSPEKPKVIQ

[10] = molecular target: Serine/threonine-protein kinase SIK1 (Homo sapiens) (UniProt P57059); experiment: Inhibition of human SIK1 assessed as enzyme activity at 1 uM using AMARAASAAALARRR as substrate preincubated for 20 mins followed by [gamma-33P]-ATP addition and measured after 120 mins by radiometric Hot-SpotSM Kinase assay relative to control
Serine/threonine-protein kinase SIK1 (Homo sapiens), sequence (P57059 whole entry): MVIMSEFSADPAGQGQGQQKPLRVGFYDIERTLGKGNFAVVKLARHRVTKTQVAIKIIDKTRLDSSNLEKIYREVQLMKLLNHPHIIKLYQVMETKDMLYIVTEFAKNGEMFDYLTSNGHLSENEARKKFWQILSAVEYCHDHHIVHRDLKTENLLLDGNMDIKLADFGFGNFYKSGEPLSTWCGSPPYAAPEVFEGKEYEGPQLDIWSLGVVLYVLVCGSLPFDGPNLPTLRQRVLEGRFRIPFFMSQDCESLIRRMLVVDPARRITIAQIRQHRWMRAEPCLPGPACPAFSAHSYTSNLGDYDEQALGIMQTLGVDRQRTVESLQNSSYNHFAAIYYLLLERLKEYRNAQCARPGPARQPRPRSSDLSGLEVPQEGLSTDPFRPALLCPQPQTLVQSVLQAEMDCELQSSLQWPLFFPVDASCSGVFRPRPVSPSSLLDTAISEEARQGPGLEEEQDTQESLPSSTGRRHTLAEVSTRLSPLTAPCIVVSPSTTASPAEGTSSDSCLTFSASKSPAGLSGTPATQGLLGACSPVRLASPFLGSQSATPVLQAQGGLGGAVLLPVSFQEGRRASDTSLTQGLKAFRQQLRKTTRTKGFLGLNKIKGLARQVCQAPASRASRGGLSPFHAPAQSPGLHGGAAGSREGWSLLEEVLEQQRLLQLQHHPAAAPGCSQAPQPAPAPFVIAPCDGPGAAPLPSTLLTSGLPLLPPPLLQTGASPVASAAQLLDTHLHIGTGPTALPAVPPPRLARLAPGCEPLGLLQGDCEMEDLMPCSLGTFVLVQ

Row | SMILES | Activity [1] | Activity [2] | Activity [3] | Activity [4] | Activity [5] | Activity [6] | Activity [7] | Activity [8] | Activity [9] | Activity [10]
1 | CC[C@H](Nc1ncnc2[nH]cnc12)c1nc2cccc(F)c2c(=O)n1-c1ccccc1 | 94.8% | 89.1% | 98.7% | 94% | 95.7% | 95% | 94.3% | 99.9% | 96.6% | 95.5%
2 | CC(C)Oc1ccc(-c2nn([C@@H](C)c3oc4ccc(F)cc4c(=O)c3-c3cccc(F)c3)c3ncnc(N)c23)cc1F [UMBRALISIB] | 92.5% | 87.9% | 98.2% | 95.3% | 94.7% | 99.7% | 91% | 96.2% | 104% | 98.2%
3 | C[C@H](Nc1ncnc2nc[nH]c12)c1cc2cccc(Cl)c2c(=O)n1-c1ccccc1 | 97.4% | 92.5% | 97.5% | 96.9% | 93.5% | 97% | 95% | 93.3% | 96.4% | 95.7%
